Structures are written as SMILES.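 These data come from cells grown in 96-well plates and exposed to compound for 48 hours at five concentrations. At the GI50, growth is halved. At the TGI there is no net growth.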 Where only a bound is given, the exact number is not on record here.

Assay in all cases: NCI anticancer screen, dose series, 48 h
In test [1] the test system is SW-620 colon.
For test [2], the system named is SK-MEL-5 melanoma.
Test [3] relates to HT29 colon.
The test system of test [4] is NCI/ADR-RES ovarian.
Test [5] deals with HCC-2998 colon.
Test [6] concerns SF-539 CNS.
In test [7] the test system is MDA-MB-435.
The test system of test [8] is SF-268 CNS.
The subject of test [9] is MDA-MB-231 breast.
For test [10], the system named is MOLT-4 leukemia.

On to `Cc1ccccc1C1=C(c2cn(C)c3ccccc23)C(=O)NC1=O`, for which the GI50 is 12.1 µM in test [1]; 16 µM in test [2]; 12.1 µM in test [3]; 24.3 µM in test [4]; > 25 µM in [5]; 13.7 µM in [6]. Besides, the GI50 in [7] was > 21.5 µM; in [8], > 25 µM; in [9], 21.5 µM; in test [10], 10.8 µM. Besides, the TGI in [1], in test [2], in test [3], in test [4], in test [5] and in [6] was > 25 µM each time. The TGI in test [7], in [8], in [9] and in test [10] was > 25 µM in each case.
For the compound `ClCCCSSCCCCl`, the TGI in test [1] is > 100 µM; in test [2], > 100 µM; in [3], > 69.1 µM; in test [4] it was > 78 µM; in test [5], > 88.2 µM; in test [6] it was 48.8 µM. For the same compound, the TGI in test [7] is > 60.5 µM; in test [8], > 100 µM; in [9], > 80.2 µM; in test [10], 7.42 µM.
Take `COC(=O)C12CCC(C)(C)CC1C1=CCC3C4(C)CC(O)C(O)C(C)(C(=O)OC)C4CCC3(C)C1(CO)CC2` (stereo not given): the TGI in test [1] worked out at 27.5 µM; in [2] it was 41.3 µM; in test [3] it was 30.1 µM; in test [4], 29.2 µM; in test [5], 27.2 µM; in [6] it was 31.6 µM. Besides, the TGI stood at 32.4 µM in test [7], 44.9 µM in test [8], 33.5 µM in test [9] and 34.4 µM in test [10].
Regarding `Fc1cc(F)c(F)c(S)c1F`, the TGI in [1] was > 100 µM; in test [2], > 100 µM; in [3] it was > 100 µM; in test [4], 38.6 µM; in [5], > 100 µM; in [6] it was > 100 µM. Moreover, the TGI in test [7] was > 100 µM; in test [8], > 100 µM; in [9] it was 44.8 µM; in test [10], 66 µM.
Turning to `O=C(/C=C/C12c3ccccc3C(c3ccccc31)C1C(=O)N(c3ccc(Cl)cc3)C(=O)C12)c1ccccn1` (stereo not given), the GI50 is 0.3 µM in [1]; 0.515 µM in test [2]; 0.335 µM in [3]; 0.332 µM in test [4]; 0.244 µM in test [5]; 0.258 µM in test [6]. In addition, the GI50 in [7] was 0.301 µM; in [8], 0.672 µM; in [9] it was 0.318 µM; in test [10], 0.322 µM. For the same compound, the TGI in test [1] was 0.994 µM; in [2], 1.21 µM; in test [3], 8.67 µM; in test [4] it was > 100 µM; in [5], 0.658 µM; in test [6], 0.676 µM. The TGI is 0.981 µM in [7], > 28.8 µM in test [8], 2.23 µM in [9] and > 100 µM in test [10].
Take `COc1ccc(-c2cc(/C=C3\C(=O)Nc4cc(Cl)ccc43)[nH]n2)cc1`: the GI50 in test [1] was 2.57 µM; in test [2], 1.9 µM; in test [3], 3.32 µM; in test [4] it was 2.79 µM; in test [5], 8.72 µM; in test [6], 2.41 µM. Moreover, the GI50 is 0.416 µM in test [7], 5.84 µM in test [8], 4.09 µM in test [9] and 4.17 µM in test [10]. Further, the TGI in test [1] is > 100 µM; in test [2] it was 8.32 µM; in [3], 13.1 µM; in test [4], 17.5 µM; in [5] it was 68.7 µM; in [6], 7.52 µM. The TGI in test [7] was 2.11 µM; in test [8], > 100 µM; in [9] it was > 100 µM; in test [10], > 100 µM.
Consider `COC(=O)C1=COC2OC3C(C(C)O)C(=O)OC34C=CC1C24` (stereo not given), for which the TGI in [1] is > 100 µM; in test [2], > 100 µM; in [3], > 100 µM; in test [4] it was 69 µM; in [5], > 100 µM; in test [6], > 100 µM. The TGI in test [7], in test [8], in test [9] and in test [10] was > 100 µM in each case.
With `COc1cc(OC)cc(Oc2cnc3cc(N)cc(N)c3n2)c1`, the GI50 is 18.6 µM in test [1]; 15.3 µM in [2]; 13.3 µM in [3]; 16.1 µM in [4]; 14.6 µM in test [5]; 21.3 µM in test [6]. The GI50 in test [7] is 2.87 µM; in [8], 15.5 µM; in test [9] it was 6.56 µM; in test [10] it was 5.37 µM. For the same compound, the TGI came to 43.7 µM in test [1]; 29.3 µM in test [2]; 30.6 µM in [3]; 43.5 µM in [4]; 28.8 µM in [5]; 43.7 µM in [6]. Also, the TGI was 6.76 µM in test [7], 31.9 µM in test [8], 21 µM in test [9] and 20.7 µM in [10].
In the case of `CN1CCN(C(=O)[C@@]2(C)CC[C@]3(C)CC[C@]4(C)C(=CC[C@@H]5[C@@]6(C)CCC(=O)NC(C)(C)[C@@H]6CC[C@]54C)[C@@H]3C2)CC1`, the GI50 in [1] was 1.87 µM; in test [2], 1.64 µM; in test [3], 1.5 µM; in test [4] it was 3 µM; in [5], 1.51 µM; in test [6], 1.56 µM. In addition, the GI50 in test [7] was 1.62 µM; in test [8] it was 3.04 µM; in test [9] it was 1.7 µM; in [10] it was 1.52 µM. Besides, the TGI in [1] worked out at 3.93 µM; in [2] it was 3.06 µM; in [3], 3.35 µM; in test [4] it was 11.9 µM; in [5] it was 3.04 µM; in [6] it was 2.9 µM. The TGI in test [7] was determined as 3.3 µM; in test [8], 14.4 µM; in [9], 3.47 µM; in test [10], 3.66 µM.

Source of the values: PubChem BioAssay (NCI).
